Test [1] has as its target T1, human FGFR3 V555M enzyme (cytoplasmic domain carrying V555M mutation) (Homo sapiens, UniProt P22607, V555M).
T1 construct: cytoplasmic domain carrying V555M mutation, from Cama Biosciences; purchased Cama Biosciences (so in the source)
The test is described as follows: FGFR3 V555M mobility shift assay (enzymatic assay). The format is biochemical. Particulars: 30 μM ATP, 45 minutes at 30° C.; read-out: FGFR3 V555M Caliper. As to the method:
FGFR3 V555M Mobility Shift Assay (Enzymatic Assay)
In a final reaction volume of 25 μL, 0.04 ng/μL human FGFR3 V555M enzyme (cytoplasmic domain carrying V555M mutation, from Cama Biosciences) was incubated with 30 μM ATP, 1 μM FL-peptide 30 substrate and 250 nL of testing compound (1% DMSO final) in assay buffer (100 mM HEPES pH 7.4, 10 mM MgCl2, 0.003% Brij35, 1 mM DTT). After incubation for 45 minutes at 30° C. the reaction was stopped with 10 μL of 0.5M EDTA pH 8.0, and then 25 μL of reaction mixture was transferred to reading plate and measured on Caliper EZ reader II. The substrate-product conversion rate was used as raw data for normalization and concentration-response curve (10 dose points with 4× serial dilution, starting with 10 μM) was plotted using Prism to calculate IC50 (M), pIC50 (−log IC50) and HillSlope value.

In test [2] the test system is NIH/3T3 cells transfected with control vector. The test is described as follows: NIH/3T3 mock cell proliferation assay (counter assay, general toxicity). Particulars: Mus musculus, NIH3T3; 72-hr incubation, CellTiter Glo; read-out: NIH/3T3 MOCK CTG. The format is cell-based. How it is done: NIH/3T3 Mock Cell Proliferation Assay
(§1) In day 1, 90 μL of cell suspension (NIH/3T3 cells transfected with the same control vector as in the above two proliferation assays) (total 30,000 cells per well in growth medium (DMEM containing 1% Glutamax, 10% FBS and 1% Pen/Strep)) was seeded in a 96-well plate and then incubated overnight at 37° C. and 5% CO2. In day 2, 10 μL of growth medium containing 10-fold stock solution of testing compound was added into cell cultures (9 dose points with 3× serial dilution, starting with 30 μM, 0.3% DMSO final). After 72-hr incubation at 37° C. and 5% CO2, in day 5 a volume of 50 μL CellTiter Glo (CTG) reagent was added into cell-containing 96-well plate and the plate was incubated at room temperature for 10 minutes before RLUs (relative light unit) were measured on a microplate reader with luminescence detection module. The RLU value was normalized to survival % and concentration-response curve was plotted using Prism to calculate IC50 (M), pIC50 (−log IC50) and HillSlope value.

Test [3] addresses T2, NIH/3T3 cells overexpressing FGFR3 V555M-TACC3 fusion protein (Homo sapiens, UniProt P22607, V555M, cells depend on it).
T2 construct: NIH/3T3 FGFR3 V555M-TACC3 CTG; other: 72-hr incubation, CellTiter Glo; fused on or other part: C-terminal part of TACC3 (coiled-coil) fused behind the FGFR3 kinase domain; Q9Y6A5 (Transforming acidic coiled-coil-containing protein 3)
Kind of test: NIH/3T3 FGFR3 V555M-TACC3 cell proliferation assay. Type of test: cell-based. Particulars: 72-hr incubation, CellTiter Glo; read-out: NIH/3T3 FGFR3 V555M-TACC3 CTG. As to the method: NIH/3T3 FGFR3 V555M-TACC3 Cell Proliferation Assay
as §1, with “cells overexpressing FGFR3 V555M-TACC3 fusion protein)” for “cells transfected with the same control vector as in the above two proliferation assays)”, “with 4×” for “with 3×”, “with 10” for “with 30”, “μM, 0.1%” for “μM, 0.3%”
For orientation: ATP-based viability assays read luminescence as a measure of living cells.

The subject of test [4] is NIH/3T3 cells overexpressing FGFR3 WT-TACC3 fusion protein. The test is described as follows: NIH/3T3 FGFR3 WT-TACC3 cellular phospho-ERK assay (in vitro PD assay). Type of test: cell-based. Particulars: Mus musculus, NIH3T3; 1-hr incubation, AlphaLISA p-ERK1/2; read-out: NIH/3T3 FGFR3 WT-TACC3 pERK. As to the method: NIH/3T3 FGFR3 WT-TACC3 Cellular Phospho-ERK Assay (In Vitro PD Assay)
(§2) 50 μL of cell suspension (NIH/3T3 cells overexpressing FGFR3 WT-TACC3 fusion protein) (total 10,000 cells per well in growth medium (DMEM containing 1% Glutamax, 10% FBS and 1% Pen/Strep)) was seeded in a 384-well plate. After overnight incubation at 37° C. and 5% CO2, 5.5 μL of growth medium containing 10× testing compound was added into cell cultures (10 dose points with 4× serial dilution, starting with 10 μM, 0.1% DMSO final). After 1-hr incubation at 37° C. and 5% CO2, the medium was depleted and AlphaLISA SureFire Ultra p-ERKI1/2 (Thr202/Tyr204) Assay Kit (from PerkinElmer) was applied for phospho-ERK level detection according to the kit instructions. The RFUs (relative fluorescence units were measured on EnVision microplate reader (ex. 680 nm, em. 615 nm) and concentration-response curve was plotted using Prism to calculate IC50 (M), pIC50 (−log IC50) and HillSlope value.
(In general: Bead proximity is the source of the signal in Alpha formats.)

Test [5] relates to NIH/3T3 cells overexpressing FGFR3 V555M-TACC3 fusion protein. The test is described as follows: NIH/3T3 FGFR3 V555M-TACC3 cellular phospho-ERK assay (in vitro PD assay). The format is cell-based. Particulars: Mus musculus, NIH3T3; 1-hr incubation, AlphaLISA p-ERK1/2; read-out: NIH/3T3 FGFR3 V555M-TACC3 pERK. How it is done:
NIH/3T3 FGFR3 V555M-TACC3 Cellular Phospho-ERK Assay (In Vitro PD Assay)
as §2, with “V555M-TACC3” for “WT-TACC3”

T1 sequence (P22607 397-806 V555M limits assumed): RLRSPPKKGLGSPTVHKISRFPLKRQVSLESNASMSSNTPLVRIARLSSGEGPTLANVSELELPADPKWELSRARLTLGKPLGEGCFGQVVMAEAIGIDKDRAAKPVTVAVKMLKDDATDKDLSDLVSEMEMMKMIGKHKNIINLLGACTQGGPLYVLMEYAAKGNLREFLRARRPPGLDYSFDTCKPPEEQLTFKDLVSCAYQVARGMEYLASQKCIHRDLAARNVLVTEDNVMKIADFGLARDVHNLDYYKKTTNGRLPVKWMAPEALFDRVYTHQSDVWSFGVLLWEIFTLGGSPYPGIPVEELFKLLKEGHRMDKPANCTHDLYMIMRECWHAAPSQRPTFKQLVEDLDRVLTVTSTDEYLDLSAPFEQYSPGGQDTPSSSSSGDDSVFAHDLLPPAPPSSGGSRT
T2 sequence (P22607 whole entry V555M, the tested form may be a part): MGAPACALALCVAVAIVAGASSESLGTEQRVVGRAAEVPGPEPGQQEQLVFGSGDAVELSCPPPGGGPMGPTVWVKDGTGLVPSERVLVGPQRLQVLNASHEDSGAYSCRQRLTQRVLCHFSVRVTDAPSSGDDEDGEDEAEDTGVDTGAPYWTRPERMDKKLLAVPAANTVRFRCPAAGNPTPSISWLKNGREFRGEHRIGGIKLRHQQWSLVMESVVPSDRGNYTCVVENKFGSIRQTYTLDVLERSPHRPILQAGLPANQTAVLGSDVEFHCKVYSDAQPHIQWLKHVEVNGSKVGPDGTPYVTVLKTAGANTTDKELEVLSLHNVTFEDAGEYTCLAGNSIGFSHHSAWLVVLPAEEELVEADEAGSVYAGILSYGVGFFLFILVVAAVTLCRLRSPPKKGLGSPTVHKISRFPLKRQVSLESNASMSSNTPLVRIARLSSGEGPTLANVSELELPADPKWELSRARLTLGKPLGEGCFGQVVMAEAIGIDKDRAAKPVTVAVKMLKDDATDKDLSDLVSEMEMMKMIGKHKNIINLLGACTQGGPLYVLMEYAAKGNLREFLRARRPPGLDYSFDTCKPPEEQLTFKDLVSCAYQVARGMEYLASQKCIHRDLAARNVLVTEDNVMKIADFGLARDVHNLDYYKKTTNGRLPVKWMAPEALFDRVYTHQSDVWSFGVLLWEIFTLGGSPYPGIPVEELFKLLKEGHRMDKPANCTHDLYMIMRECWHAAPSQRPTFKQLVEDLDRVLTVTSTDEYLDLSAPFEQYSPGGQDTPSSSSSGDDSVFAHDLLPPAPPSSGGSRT

As to `C[C@H](Nc1c(-c2nc3cnc(N4CCOCC4)cc3[nH]2)c(=O)[nH]c2ccsc12)c1ncccn1` [Compound 2, (S)-6-(6-Morpholino-1H-imidazo[4,5-c]pyridin-2-yl)-7-((1-(pyrimidin-2-yl)ethyl)amino)thieno[3,2-b]pyridin-5(4H)-one], the IC50 came out at 0.23 nM in test [1], 891 nM in test [2], 1.09 nM in test [4] and 1.6 nM in test [5]. Also, the GI50 in test [3] worked out at 1.24 nM.

Values taken from US12398155B2, “Thienopyridinone compounds” (Janssen Pharmaceutica NV, priority 2019, dated 2025).
